According to patent publication US11149135B2, “Application of cyclodextrins (CDS) for remediation of perfluoroalkyl substances (PFASS)” (THE FLORIDA INTERNATIONAL UNIVERSITY BOARD OF TRUSTEES, priority 2017, dated 2021):

What was measured:
[1] = β-CD:legacy PFAS; from Wilson and Verrall, Langmuir; cited from earlier work
[2] = 19F NMR titration, average association constants of PFECAs with α-CD; format: binding; design: key: *: no significant association; settings: 50% D2O/50% H2O, pH 7; averaged over individual fluorines
Procedure: (§1) ^19F NMR spectroscopy was performed with a 400 MHz Bruker instrument with a quad probe (operating at 376.498 MHz for 19F). Hexafluorobenzene was used as the internal standard with a chemical shift of −164.9 ppm. For the titration experiments, the chemical shift of each peak was recorded, and the 1:1 and 2:1 association constants were calculated in GraphPad Prism and Mathworks Matlab by Ramos Cabrer et al.'s, Langmuir 1999, 15, 5489-5495 method.
(§2) The ^19F NMR spectrum of each PFECA was monitored as a function of CD concentration. The individual CD:PFECA association constants were determined via nonlinear least-squares regression analysis of the change in observed chemical shift. The association constants determined for individual fluorines were then averaged to find the average association constant for each PFECA with each CD.

[3] = 19F NMR titration, average association constants of PFECAs with β-CD; format: binding; settings: for Average association constant with β-CD (1:1): 1:1 β-CD:PFECA (unmarked values are 1:1); for Average association constant with β-CD (1:1) / Average association constant with β-CD (2:1): pH 7; for Average association constant with β-CD (2:1): 2:1 β-CD:PFECA; for Decrease (1:1): decrease of 1:1 β-CD association constant versus legacy PFAS of the same chain length; for Emerging PFAS Kassoc (1:1): β-CD:PFECA, 1:1 (unmarked values taken as 1:1)
Procedure: as §1, §2

[4] = 19F NMR titration, average association constants of PFECAs with γ-CD; format: binding; design: key: *: no significant association; settings: 50% D2O/50% H2O, pH 7; averaged over individual fluorines
Procedure: as §1, §2

[5] = 19F NMR association constants of β-CD:legacy PFAS complexes; format: binding; settings: aqueous media, room temperature
Procedure: A detailed comprehensive Nuclear Magnetic Resonance (NMR) spectral study of the complexation of PFASs to β-CD was conducted, Weiss-Errico and O'Shea, J. Hazardous Mat. 2017 329, 57-65, with highlights herein. […] Competition studies with adamantane-carboxylic acid and phenol confirmed the persistence of the β-CD:PFAS complex. The aqueous solution pH, ionic strength, and the presence of humic acid have only a modest influence on the β-CD:PFAS complexes. Table 2 gives the association constants for β-CD complexes with a sample of the PFASs studied, including perfluoroheptanoic acid (PFHpA), perfluorooctanoic acid (PFOA), perfluorononanoic acid (PFNA), perfluorooctane sulfonate (PFOS), and perfluorooctanesulfonamide (PFOSA).

[6] = 19F NMR β-CD:PFOA association constants in the presence and absence of HSA; format: binding
Source text: The capacity or remediation in a human host as a therapeutic application is illustrated by the competitive binding between Human Serum Albumin (HSA) and β-CD for PFOA. Different spectroscopic techniques were employed to understand the interactions between HSA, PFOA, and β-CD. The association between PFOA and β-CD in the presence of HSA in water was characterized using ^19F NMR experiments. Changes in the ^19F chemical shift of PFOA titrated with β-CD were monitored to compare the host-guest association in the presence and absence of 35 μM HSA. The observed change in chemical shift of each fluorine peak varied differently as a function of β-CD concentration. […] The association constants for fluorine atoms closer to the PFOA carboxylate head group with β-CD are weaker in the presence of HSA, whereas the fluorine atoms towards the end of the alkyl chain (tail) experience a stronger interaction with β-CD in the presence of HSA. The 1:1 β-CD:PFOA association constant decreases in the presence of HSA likely due to the interaction of the carboxylate group of PFOA with HSA that weakens the PFOA association to β-CD.
NMR experiments were performed with a 400 MHz Bruker instrument with a quad probe (operating at 376.498 MHz for ^19F). Hexafluorobenzene was used as the internal standard with a chemical shift of −164.9 ppm.

[7] = tested on: zebrafish (Danio rerio) embryo; experiment: Zebrafish embryo toxicity assay; format: in vivo
Source text: To assess the potential of β-CD to attenuate the developmental and lethal effects of PFOA, zebrafish (Danio rerio) embryo are used as a toxicological model. Practical advantages of the zebrafish embryo system include ease of rearing and a high fecundity, as well as small (˜1 mm) and nearly transparent embryos, rapid (≤5-7 day) embryo development, and a fully sequenced genome. As such, the zebrafish embryo has been employed to look at a wide range of environmental contaminants in terms of acute and chronic toxicity. Acute toxicological endpoints (e.g., embryotoxicity, teratogenicity, neurotoxicity) which are readily accessible in the zebrafish embryo model are, furthermore, aligned with the reported health concerns associated with PFOA, and the system has, indeed, been used to evaluate toxicity of PFOA and related perfluorinated alkyl substances.
Perfluorooctanoic acid (PFOA, 96% purity) was purchased from Sigma-Aldrich. β-Cyclodextrin (β-CD, 98% purity) was purchased from Acros Organics. Both chemicals were used without further purification. Stock solutions of PFOA (7.25 mM, i.e., 3000 parts-per-million [ppm]), 1:1 β-CD:PFOA (β-CD: 7.25 mM, PFOA: 7.25 mM), and 2:1 β-CD:PFOA (β-CD: 14.50 mM, PFOA: 7.25 mM) were prepared with deionized water in polypropylene tubes. The solutions were sonicated until dissolution of the solids was achieved. A control solution of deionized water was also stored in a polypropylene tube. Stock solutions were subsequently diluted over a relevant range of concentrations for assessment of zebrafish embryo toxicity.
Adult zebrafish were maintained in 30-L tanks at 28° C. with 14 h:10 h light/dark cycle, and bred (from approximately 10-30 individuals) above 10-L tanks in mesh enclosures. Eggs were collected (from the bottom of tanks) within 1 h of the end of the dark cycle, and following collection and washing, transferred to plates containing E3 medium. Eggs containing dead, or obviously poor quality embryos, were removed. The remaining embryos were used, within ˜2 hour post-fertilization (hpf), for toxicity assays.
Zebrafish Embryo Toxicity Assay Assays were conducted in polypropylene 24-well plates (Evergreen Scientific, Los Angeles, Calif.) with five embryos (4- to 32-cell stage) per replicate, i.e., well (n=4), in E3 medium for a total of 20 zebrafish embryos per treatment/concentration. Embryos were exposed to a range of PFOA concentrations (30, 50, 100, 150, 200, 250 and 300 ppm) alone, and in 1:1 and 2:1 ratios with β-CD, and subsequently observed at 1, 2, 3, 4 and 7 days post-fertilization (dpf) with a dissecting light microscope to assess mortality and relevant developmental toxicity. Exposures and assessments were repeated several times, in preliminary studies, to determine relevant concentration levels for PFOA, and generally confirm results. Lethality was calculated as the concentration corresponding to 50% mortality (LC50); the LC50 values, and their 95% confidence intervals, were calculated via Probit Analysis in SPSS. In addition to lethality, inhibition of embryo development was morphometrically assessed based on the interocular distance between eyes (as a proxy for body size) of 7 dpf embryos (i.e., eleuthero-embryo stage) as measured using Olympus DP2-BSW imaging software. Apparent neurobehavioral effects were additionally measured as the percent of 7-dpf eleuthero-embryos displaying listing (i.e., falling to one side) behavior within a 30 s period (with shaking between each measurement to allow embryos to right themselves). Statistical Analyses
One-way analysis of variance (ANOVA) of the LC50 values, as well as the interocular distance and percent listing at 7 dpf, was performed in GraphPad Prism. The significance level was set at p=0.05.

[8] = Control experiments: interaction of internal standard with cyclodextrins; settings: 1.44×10−3 M
Procedure: The solution consisted of 50% D2O and 50% DI H2O, adjusted to pH 7 with 0.036 M NaOH. […] Each cyclodextrin (α-, β-, γ-) was added at various stoichiometric ratios and the solution was sonicated until dissolution of the CD was achieved.

[9] = target: Human Serum Albumin (HSA) (Homo sapiens, UniProt P02768); experiment: HSA fluorescence (steady state and lifetime): reversal of PFOA binding by β-CD
Chain of Human Serum Albumin (HSA) (P02768 25-609): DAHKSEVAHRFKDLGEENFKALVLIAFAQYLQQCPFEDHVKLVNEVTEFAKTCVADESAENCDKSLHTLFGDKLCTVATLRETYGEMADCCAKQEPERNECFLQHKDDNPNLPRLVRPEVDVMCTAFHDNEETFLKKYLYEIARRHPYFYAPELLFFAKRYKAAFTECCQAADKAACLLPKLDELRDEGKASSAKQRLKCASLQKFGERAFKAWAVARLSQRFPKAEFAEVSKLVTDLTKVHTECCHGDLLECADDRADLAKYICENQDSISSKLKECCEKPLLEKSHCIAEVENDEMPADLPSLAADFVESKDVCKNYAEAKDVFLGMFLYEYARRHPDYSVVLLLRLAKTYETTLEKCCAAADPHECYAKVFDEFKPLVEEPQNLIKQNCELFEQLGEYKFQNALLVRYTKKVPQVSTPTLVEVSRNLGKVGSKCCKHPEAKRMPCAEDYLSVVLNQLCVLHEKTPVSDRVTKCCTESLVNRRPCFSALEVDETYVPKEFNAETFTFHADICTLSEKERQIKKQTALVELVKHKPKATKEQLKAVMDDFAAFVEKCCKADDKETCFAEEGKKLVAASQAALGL
Procedure: For the fluorescence spectroscopy experiments, stock solutions of PFOA (10 mM and 100 μM), β-CD (5 mM), and HSA (20 μM) were prepared with a 50 mM sodium phosphate buffer (pH 7.4) solution in polypropylene tubes
Steady state emission experiments were performed with a PC1 Fluorometer (ISS Inc, Champaign, Ill.). The excitation wavelength was 295 nm, and the emission spectra were recorded between 305 and 440 nm using 1 nm slit width for both excitation and emission. The emission spectra were corrected for the inner filter effect; however, the inner filter effect was insignificant at the HSA concentrations used in this study. Fluorescence lifetime experiments (frequency-resolved) were performed with a ChronoFD Fluorometer (ISS Inc, Champaign, Ill.). The excitation wavelength was 280 nm and 2,5-diphenyloxazole (PPO) was used as a lifetime reference. For both steady state and fluorescence lifetime experiments, the concentration of HSA was 10 βM. PFOA and β-CD were titrated into the sample at various concentrations.

[10] = 50 mM Phosphate Buffer (pH 7.4)
[11] = 50 mM Phosphate Buffer (pH 7.4) with 35 μM HSA

SMILES: O=C(O)C(F)(F)C(F)(F)C(F)(F)C(F)(F)C(F)(F)F [PFHxA, perfluorohexanoic acid]
- Legacy PFAS Kassoc [1]: 2.35 +/− 0.46 × 10^4 M^−1

SMILES: O=C(O)C(F)(F)OC(F)(F)C(F)(F)OC(F)(F)C(F)(F)OC(F)(F)F [PFO3DA, perfluoro(3,6,9-trioxadecanoic) acid]
- Average association constant with α-CD [2]: 9.28 +/− 2.80 × 10^1 M^−1
- Average association constant with β-CD (1:1) [3]: 3.03 +/− 1.09 × 10^3 M^−1
- Average association constant with β-CD (2:1) [3]: 4.12 +/− 1.08 × 10^3 M^−1
- Decrease (1:1) [3]: ~100
- Emerging PFAS Kassoc (1:1) [3]: 3.03 +/− 1.09 × 10^3 (1:1) M^−1
- Average association constant with γ-CD [4]: 7.60 +/− 2.10 × 10^2 M^−1

SMILES: O=C(O)C(F)(F)OC(F)(F)C(F)(F)OC(F)(F)C(F)(F)OC(F)(F)C(F)(F)C(F)(F)C(F)(F)F [PFO3TDA, perfluoro-(3,6,9-trioxatridecanoic) acid]
- Average association constant with α-CD [2]: *
- Average association constant with β-CD (1:1) [3]: 5.93 +/− 1.20 × 10^5 M^−1
- Average association constant with β-CD (2:1) [3]: 1.36 +/− 0.28 × 10^5 M^−1
- Average association constant with γ-CD [4]: 3.48 +/− 1.50 × 10^3 M^−1

SMILES: O=C(O)C(F)(F)C(F)(F)C(F)(F)C(F)(F)C(F)(F)C(F)(F)C(F)(F)F [PFOA, perfluorooctanoic acid]
- K1:1 association constant ([5]; 1:1 β-CD:PFAS complex): 5.00 ± 0.10 × 10^5 M^−1
- K2:1 association constant ([5]; 2:1 β-CD:PFAS complex): 1.20 ± 0.50 × 10^3 M^−1
- K1:1 β-CD:PFOA [6, 10]: 4.16 ± 0.88 × 10^5 M^−1
- K2:1 β-CD:PFOA [6, 10]: 6.42 ± 1.78 × 10^2 M^−1
- K1:1 β-CD:PFOA [6, 11]: 1.67 ± 0.33 × 10^5 M^−1
- K2:1 β-CD:PFOA [6, 11]: 9.09 ± 1.27 × 10^2 M^−1
- LC50 ([7]; 1 dpf, ppm PFOA): 47.3±3.6 ppm
- interocular distance ([7]; 7 dpf, surviving embryos at sub-lethal concentrations ≤50 ppm PFOA, pooled): 0.25±0.06 mm
- percent of surviving embryos listing within a 30 second period ([7]; 7 dpf, ≤50 ppm PFOA, pooled): 96±9%
- lethality at 24 hpf ([7]; PFOA concentrations above 100 ppm): all embryos dead
- embryos showing discernible deformities ([7]; by 7 dpf, bent spines and edemas): ~5%
- hatching rates ([7]; surviving embryos, hatched by 3 dpf): unaffected

SMILES: O=C(O)C(F)(OC(F)(F)C(F)(F)C(F)(F)F)C(F)(F)F (stereo not shown) [PFPrOPrA, Perfluoro(2-methyl-3-oxahexanoic) acid]
- Average association constant with α-CD [2]: 2.36 +/− 1.10 × 10^2 M^−1
- association constant with β-CD ([3]; 1:1 β-CD:PFECA): 745 M⁻¹
- Average association constant with β-CD (1:1) [3]: 7.45 +/− 4.27 × 10^2 M^−1
- Decrease (1:1) [3]: ~100
- Emerging PFAS Kassoc (1:1) [3]: 7.45 +/− 4.27 × 10^2 M^−1
- Average association constant with γ-CD [4]: *

SMILES: Fc1c(F)c(F)c(F)c(F)c1F [hexafluorobenzene, Hexafluorobenzene]
- interaction with cyclodextrins [8]: does not significantly interact with cyclodextrins

SMILES: OC[C@H]1O[C@@H]2O[C@H]3[C@H](O)[C@@H](O)[C@@H](O[C@H]4[C@H](O)[C@@H](O)[C@@H](O[C@H]5[C@H](O)[C@@H](O)[C@@H](O[C@H]6[C@H](O)[C@@H](O)[C@@H](O[C@H]7[C@H](O)[C@@H](O)[C@@H](O[C@H]8[C@H](O)[C@@H](O)[C@@H](O[C@H]1[C@H](O)[C@H]2O)O[C@@H]8CO)O[C@@H]7CO)O[C@@H]6CO)O[C@@H]5CO)O[C@@H]4CO)O[C@@H]3CO [β-CD, β-Cyclodextrin]
- toxicity of β-CD alone ([7]; tested range up to maximum concentration 1645 ppm (1.45 mM) β-CD): No discernible toxicity
- effect on PFOA binding to HSA, steady state fluorescence ([9]; 10 μM HSA titrated with PFOA, 1:1 and 2:1 β-CD:PFOA ratios): cannot completely reverse the first PFOA binding to HSA
- fluorescence intensity and λmax of HSA with PFOA ([9]; 10 μM HSA, 500 μM PFOA, 5:1 β-CD:PFOA ratio (2500 μM β-CD)): return to the values observed for HSA in the absence of PFOA
- fluorescence lifetime τ and α values of HSA with PFOA ([9]; 10 μM HSA, 50:1 PFOA:HSA, 5:1 β-CD:PFOA ratio): identical to those determined for HSA in the absence of PFOA
